Experimental findings from ChEMBL document CHEMBL1201862, “PubChem BioAssay data set” (2004) are described below.

Structures are written as SMILES. The source made the active and inactive calls.

A short description of series [1]: decrease of insulin promoter-GFP reporter – imaging, high-content screening, mouse beta cells (AID 1628). Format: functional. Particulars: MIN6.
Series [2] is described as follows: MIN6 cell viability loss – mouse insulinoma, cytotoxicity control, dose response (AID 2122).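 Note: confirmatory high-throughput counterscreen run to flag cytotoxic compounds.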 Format: functional.
Series [3] is described as follows: reduction of Shn3 3'UTR-driven luciferase in osteoblasts – cell-based, Clone20 osteoblasts, firefly luciferase, cherry-picked, dose response (AID 624132).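 Note: firefly luciferase luminescence from reporter carrying the Shn3 3'UTR in osteoblasts.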 In kind it is functional.
The nature of series [4]: loss of viability in HepG2 cells – cell-based, CellTiter-Glo, cherry-picked, cytotoxicity control for Shn3 inhibitor project, dose response (AID 624134). Format: functional. (In ATP-based viability assays light output follows the ATP content of the culture.)
Series [5] can be described thus: non-specific 3'UTR reporter inhibition in Clone20-Shn3RL – cell-based, Renilla luciferase, cherry-picked, counter-screen for Shn3 inhibitor project, dose response (AID 624133). In kind it is functional. Background: The purpose of a counterscreen is to sort out artefacts and off-target activity.
For series [6], the target named is T1, Mannose-6-phosphate isomerase (Homo sapiens, UniProt P34949).
T1 sequence (P34949 whole entry): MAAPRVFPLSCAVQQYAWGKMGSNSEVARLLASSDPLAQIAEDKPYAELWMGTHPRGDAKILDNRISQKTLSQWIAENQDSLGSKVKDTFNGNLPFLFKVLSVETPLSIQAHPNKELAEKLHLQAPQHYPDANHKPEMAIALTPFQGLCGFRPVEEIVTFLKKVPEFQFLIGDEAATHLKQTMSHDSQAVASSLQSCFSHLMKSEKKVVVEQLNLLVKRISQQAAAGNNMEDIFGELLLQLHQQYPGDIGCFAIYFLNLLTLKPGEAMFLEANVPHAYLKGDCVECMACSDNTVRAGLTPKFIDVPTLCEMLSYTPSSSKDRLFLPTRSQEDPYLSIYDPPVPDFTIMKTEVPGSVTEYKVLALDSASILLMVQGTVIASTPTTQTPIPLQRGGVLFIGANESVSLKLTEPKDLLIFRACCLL
Nature of the series: Confirmation of compounds inhibiting phosphomannose isomerase (PMI) via a fluorescence intensity assay using a high concentration of mannose 6-phosphate. [Related pubchem assays (depositor defined):AID1209, AID1220, AID1545, AID1553, AID1620].

For series [7], the target named is T1, Mannose-6-phosphate isomerase. As to the kind of experiment: phosphomannose isomerase inhibition – biochemical, fluorescence intensity, confirmation (AID 1535).
In another series the target is Phosphomannomutase 2 (Homo sapiens, UniProt O15305). As to the kind of experiment: Counter screen SAR assay for PMM2 inhibitors via a fluorescence intensity assay. [Related pubchem assays (depositor defined):AID1545, AID1574].
Chain of Phosphomannomutase 2 (O15305 whole entry): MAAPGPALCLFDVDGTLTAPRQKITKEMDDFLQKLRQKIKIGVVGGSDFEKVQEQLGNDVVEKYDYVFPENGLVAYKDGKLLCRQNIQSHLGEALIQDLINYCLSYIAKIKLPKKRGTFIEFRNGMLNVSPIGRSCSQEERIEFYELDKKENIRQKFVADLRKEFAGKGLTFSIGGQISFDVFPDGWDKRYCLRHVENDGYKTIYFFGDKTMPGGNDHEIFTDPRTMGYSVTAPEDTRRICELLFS
Series [8] deals with Phosphoethanolamine/phosphocholine phosphatase (Homo sapiens, UniProt Q8TCT1). As to the kind of experiment: SAR assay for compounds that inhibit PHOSPHO1. [Related pubchem assays (depositor defined):AID1545, AID1565, AID1574].
Chain of Phosphoethanolamine/phosphocholine phosphatase (Q8TCT1 whole entry): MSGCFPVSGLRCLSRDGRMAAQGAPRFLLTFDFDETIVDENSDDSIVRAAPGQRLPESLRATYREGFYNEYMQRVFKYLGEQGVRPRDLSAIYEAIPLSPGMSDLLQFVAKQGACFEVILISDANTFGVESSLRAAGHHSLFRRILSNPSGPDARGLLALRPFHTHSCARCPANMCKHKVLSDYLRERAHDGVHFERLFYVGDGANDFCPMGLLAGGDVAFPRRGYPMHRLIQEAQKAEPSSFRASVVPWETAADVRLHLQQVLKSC
The target of a further series is T2, Cytochrome P450 1A2 (Homo sapiens, UniProt P05177).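 Note: PubChem cytochrome P450 panel assay, CYP1A2 panel member.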
T2 sequence (P05177 whole entry): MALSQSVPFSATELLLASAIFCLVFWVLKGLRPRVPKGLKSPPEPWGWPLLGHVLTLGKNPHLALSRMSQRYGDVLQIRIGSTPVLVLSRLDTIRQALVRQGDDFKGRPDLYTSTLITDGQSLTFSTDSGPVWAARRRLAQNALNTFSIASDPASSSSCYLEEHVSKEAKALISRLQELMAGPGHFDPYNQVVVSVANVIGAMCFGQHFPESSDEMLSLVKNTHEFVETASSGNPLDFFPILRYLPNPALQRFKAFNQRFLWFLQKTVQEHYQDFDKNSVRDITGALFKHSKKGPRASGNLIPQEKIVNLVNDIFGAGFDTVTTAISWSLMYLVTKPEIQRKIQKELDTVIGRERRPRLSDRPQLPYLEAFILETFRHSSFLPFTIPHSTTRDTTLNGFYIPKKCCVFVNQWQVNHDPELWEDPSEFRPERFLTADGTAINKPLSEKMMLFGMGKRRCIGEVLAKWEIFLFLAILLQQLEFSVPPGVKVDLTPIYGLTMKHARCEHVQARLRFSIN

A further series addresses Trypsin (Sus scrofa, UniProt P00761). Nature of the series: trypsin protease activity blockade – biochemical, quenched peptide fluorescence, cherry-pick, selectivity assay for Rce1 protease inhibitor project, dose response (AID 488789).
In another series the target is T3, CAAX prenyl protease 2 (Saccharomyces cerevisiae S288c, UniProt Q03530).
T3 sequence (Q03530 whole entry): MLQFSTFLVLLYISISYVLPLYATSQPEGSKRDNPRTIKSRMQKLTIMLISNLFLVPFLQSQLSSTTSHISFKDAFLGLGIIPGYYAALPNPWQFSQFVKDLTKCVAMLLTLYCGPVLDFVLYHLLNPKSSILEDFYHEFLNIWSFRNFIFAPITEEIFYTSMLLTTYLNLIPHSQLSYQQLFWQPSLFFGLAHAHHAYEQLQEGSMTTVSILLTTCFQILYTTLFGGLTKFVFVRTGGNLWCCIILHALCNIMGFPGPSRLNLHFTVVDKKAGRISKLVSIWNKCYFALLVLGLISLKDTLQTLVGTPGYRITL
In kind it is biochemical.

The next series concerns the target CAAX prenyl protease 1 (Saccharomyces cerevisiae S288c, UniProt P47154). Nature of the series: yeast CAAX protease Ste24 inhibition – biochemical, S. cerevisiae, plate reader, cherry-pick, dose response (AID 488815).

Chain of CAAX prenyl protease 1 (P47154 whole entry): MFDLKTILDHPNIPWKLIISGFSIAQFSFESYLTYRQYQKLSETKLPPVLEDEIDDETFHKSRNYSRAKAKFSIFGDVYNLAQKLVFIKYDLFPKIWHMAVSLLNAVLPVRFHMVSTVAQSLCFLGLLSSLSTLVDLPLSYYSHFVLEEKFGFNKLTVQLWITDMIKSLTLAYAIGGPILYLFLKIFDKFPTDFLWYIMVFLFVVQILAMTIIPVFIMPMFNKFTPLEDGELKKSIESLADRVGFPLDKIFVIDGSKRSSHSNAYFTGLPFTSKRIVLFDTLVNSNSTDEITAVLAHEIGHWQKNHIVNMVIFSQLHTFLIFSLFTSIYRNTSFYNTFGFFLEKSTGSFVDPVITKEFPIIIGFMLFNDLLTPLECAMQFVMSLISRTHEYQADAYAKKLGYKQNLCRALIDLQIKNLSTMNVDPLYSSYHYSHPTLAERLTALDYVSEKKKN
Chain of Trypsin (P00761 whole entry): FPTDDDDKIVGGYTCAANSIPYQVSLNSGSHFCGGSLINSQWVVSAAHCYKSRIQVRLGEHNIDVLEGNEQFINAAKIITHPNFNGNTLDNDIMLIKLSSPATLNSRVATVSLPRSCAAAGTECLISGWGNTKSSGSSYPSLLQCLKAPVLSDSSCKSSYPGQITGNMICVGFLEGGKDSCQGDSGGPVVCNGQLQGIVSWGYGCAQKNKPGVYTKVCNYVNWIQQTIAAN

One may read the IC50 as the concentration that inhibits the measured activity by half. As a reminder, the AC50 is the midpoint of the concentration-response curve, whichever way the signal moves. For the molecule `COc1ccccc1NC(=O)Cc1nn(C)c(=O)c2ccccc12`, the results for the IC50 in series [1] and in series [2] were 3.14 µM (active) and 2.11 µM (active), respectively. Besides, the half-maximal activity concentration (AC50) in [3] was 1.97 µM (active); in [4], 58.6 µM (active); in series [5], 2.05 µM (active).

With `Cc1ccc(C)c(N2Cc3ccccc3C2=O)c1`, the IC50 (in series [6]; in [7]; on Phosphomannomutase 2; in series [8]) was > 100 µM (inactive) throughout.

`N#CC[N+]1(Cc2ccccn2)CCCC1.O=S(=O)([O-])c1ccccc1`: at Cytochrome P450 1A2, the concentration at half-maximal activity (AC50) entry is “inactive”.

Take `COc1cccc2c(O)c(C(=O)O)cnc12`: the AC50 on Trypsin was 64.1 µM (active); on CAAX prenyl protease 2, 36 µM (active); at CAAX prenyl protease 1 it was 6.84 µM (active).
